Assay results published in US9718790B2, “Triazine derivative and pharmaceutical composition having an analgesic activity comprising the same” (SHIONOGI & CO., LTD., priority 2010, dated 2017).

Target: human P2X3 receptor (Homo sapiens (Human), UniProt P56373)
Test: Evaluation of human P2X3 receptor inhibitory activity (Fluo-3 calcium fluorescence, FDSS 3000, ATP stimulation);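 also: stimulus was 50 nM ATP with fluorescence followed for 3 min, and the response per well was peak post-ATP fluorescence divided by the reading at measurement start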
Type: cell-based
[1] = C6BU-1 cells stably expressing human P2X3 receptor
[2] = C6BU-1 cells stably expressing human P2X3 receptor, Fluo-3 fluorescence, FDSS 3000
[3] = human P2X3 receptor, Test Example 1

human P2X3 receptor, sequence (P56373 whole entry): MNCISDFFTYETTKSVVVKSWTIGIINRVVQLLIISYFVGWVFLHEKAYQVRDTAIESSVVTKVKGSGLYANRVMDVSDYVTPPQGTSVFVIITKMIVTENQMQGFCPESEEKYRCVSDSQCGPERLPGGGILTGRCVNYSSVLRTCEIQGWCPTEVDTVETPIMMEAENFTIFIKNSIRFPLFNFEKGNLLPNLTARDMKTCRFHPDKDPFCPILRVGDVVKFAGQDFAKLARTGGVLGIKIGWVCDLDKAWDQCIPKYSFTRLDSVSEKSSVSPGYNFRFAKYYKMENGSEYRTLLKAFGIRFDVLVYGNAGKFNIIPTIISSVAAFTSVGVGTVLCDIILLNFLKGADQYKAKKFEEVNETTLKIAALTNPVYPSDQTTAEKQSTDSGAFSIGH

Row | Compound | IC50 [1] [nM] | IC50 [2] [nM] | also measured
1 | COc1cc(/N=c2\[nH]c(=O)n(CCOC3CCCCO3)c(=O)n2Cc2ccc(Cl)cc2)ccc1OC(C)C (stereo not drawn) [Compound I-2005] | 3 | – | –
2 | CC[C@@H](C)Oc1ccc(/N=c2\[nH]c(=O)n([C@H](C)CC(=O)OC)c(=O)n2Cc2ccc(C)cc2)cc1C [Compound I-0938] | – | 35 | –
3 | Cc1nc2ccc(/N=c3\[nH]c(=O)n(C[C@H](O)CO)c(=O)n3CC3CCC(C)CC3)cc2s1 (stereo partly drawn) [Compound I-2097] | 5 | – | –
4 | CCOC(=O)CCn1c(=O)[nH]/c(=N\c2ccc(OC(C)C)c(Cl)c2)n(Cc2ccc(C)cc2)c1=O [Compound I-0866, 6-(3-chloro-4-isopropoxyphenylamino)-3-(2,3-ethoxycarbonylethyl)-1-(4-methylbenzyl)-1,3,5-triazinane-2,4-dion] | – | – | IC50 [3]: 2 nM
5 | CCOC(=O)Cc1c(C)oc2ccc(/N=c3\[nH]c(=O)n(CC)c(=O)n3Cc3ccc(Cl)cc3)cc12 [Compound I-2149] | 791 | – | –
6 | C=Cc1cc(/N=c2\[nH]c(=O)n(C[C@H](C)C(=O)O)c(=O)n2Cc2ccc(C)cc2)ccc1OC(C)C [Compound I-0910, (S)-1-(4-methylbenzyl)-6-(3-vinyl-4-isopropoxyphenylimino)-3-(2-hydroxycarbonylpropyl)-1,3,5-triazinane-2,4-dion] | – | 8 | –
7 | CC(C)Oc1ccc(/N=c2\[nH]c(=O)n(Cc3ccc[nH]c3=O)c(=O)n2Cc2ccc(Cl)cc2)cc1F [Compound I-0685] | 8 | – | –
8 | COC(=O)c1cccc(Oc2ccc(/N=c3\[nH]c(=O)n(C)c(=O)n3Cc3ccc(C)cc3)cc2)n1 [Compound I-2266] | – | – | IC50 [3]: 44 nM
9 | Cn1c(=O)[nH]/c(=N\c2ccc(Oc3ccc(C(N)=O)cn3)cc2)n(Cc2ccc(Cl)cc2)c1=O [Compound I-2407] | – | – | IC50 [3]: 9 nM
10 | Cc1nc2ccc(/N=c3\[nH]c(=O)n([C@H](C)[C@H](C)C(=O)O)c(=O)n3Cc3ccc(Cl)cc3)cc2s1 [Compound I-1467] | 12 | – | –
11 | Cc1nc2ccc(/N=c3\[nH]c(=O)n(CC(N)=O)c(=O)n3Cc3ccc(Cl)cc3)cc2s1 [Compound I-1659] | – | 6 | –
12 | CC(C)Oc1ccc(/N=c2\[nH]c(=S)n(C(C)C)c(=O)n2Cc2ccc(Cl)cc2)cc1Cl [Compound I-2257, 1-(4-chlorobenzyl)-3-isopropyl-6-(3-chloro-4-isopropoxyphenylimino)-4-thioxo-1,3,5-triazinane-2-one] | – | – | IC50 [3]: 151 nM
13 | CC(C)Oc1ccc(/N=c2\[nH]c(=O)n(C[C@H](C)C(=O)O)c(=O)n2Cc2ccc(F)cc2)cc1 [Compound I-0639] | 216 | – | –
14 | Cc1cc(/N=c2\[nH]c(=O)n(C(C)(C)CC(=O)O)c(=O)n2Cc2ccc(Cl)cc2)ccc1OC(C)C [Compound I-0804] | 132 | – | –
15 | CCOC(=O)C(F)(F)Cn1c(=O)[nH]/c(=N\c2ccc(OCC)c(Cl)c2)n(Cc2ccc(C)cc2)c1=O [Compound I-0856] | – | – | IC50 [3]: 12 nM
16 | CCOC(=O)c1cnc(Oc2ccc(/N=c3\[nH]c(=O)n(CC)c(=O)n3Cc3ccc(Cl)cc3)cc2)s1 [Compound I-2148] | 2 | – | –
17 | C[C@@H](C(=O)O)[C@H](C)n1c(=O)[nH]/c(=N\c2ccc3c(c2)CCCO3)n(Cc2ccc(Cl)cc2)c1=O [Compound I-1820] | – | 204 | –
18 | CCc1cc2cc(/N=c3\[nH]c(=O)n(CC(CO)CO)c(=O)n3Cc3ccc(Cl)cc3)ccc2o1 [Compound I-2313] | – | – | IC50 [3]: 8 nM
19 | Cc1nc2ccc(/N=c3\[nH]c(=O)n(CCC(CO)CO)c(=O)n3Cc3ccc(Cl)cc3)cc2s1 [Compound I-1853] | – | 4 | –
20 | Cc1ccc(Cn2c(=O)n(C[C@H](C)C(=O)O)c(=O)[nH]/c2=N\c2ccc(OC(C)C)c(C)c2)cc1 [Compound I-0680] | 26 | – | –
21 | Cc1ccc(Cn2c(=O)n(CCC(=O)O)c(=O)[nH]/c2=N\c2c(Cl)ccc(C(F)(F)F)c2C)cc1 [Compound I-2090] | – | – | IC50 [3]: < 4 nM

Row | Compound | IC50 [1] [nM] | IC50 [2] [nM] | also measured
22 | COC(=O)CCCn1c(=O)[nH]/c(=N\c2ccc3nc(C)sc3c2)n(Cc2ccc(Cl)cc2)c1=O [Compound I-2142] | 6 | – | –
23 | CCn1c(=O)[nH]/c(=N\c2ccc(Oc3ccc(C(=O)O)nn3)cc2)n(Cc2ccc(C)cc2)c1=O [Compound I-2383] | – | – | IC50 [3]: 15 nM
24 | CNC(=O)Cn1c(=O)[nH]/c(=N\c2ccc(O[C@H](C)C(F)(F)F)cc2)n(Cc2ccc(Cl)cc2)c1=O [Compound I-1960] | 54 | – | –
25 | CC(C)Oc1ccc(/N=c2\[nH]c(=O)n(Cc3cc(O)no3)c(=O)n2Cc2ccc(Cl)cc2)cc1F [Compound I-1767] | – | 55 | –
26 | COC(=O)CCCn1c(=O)[nH]/c(=N\c2ccc(Oc3ccncc3)cc2)n(Cc2ccc(Cl)cc2)c1=O [Compound I-1245] | 3 | – | –
27 | C[C@H](C(=O)O)n1c(=O)[nH]/c(=N\c2ccc(Oc3ccon3)cc2)n(Cc2ccc(Cl)cc2)c1=O [Compound I-2486] | – | – | IC50 [3]: 381 nM
28 | C[C@@H](Cn1c(=O)[nH]/c(=N\c2ccc3ncccc3c2)n(Cc2ccc(Cl)cc2)c1=O)C(=O)O [Compound I-1346] | 812 | – | –
29 | Cc1nc2ccc(/N=c3\[nH]c(=O)n([C@@H](C)[C@@H](C)C(=O)O)c(=O)n3Cc3ccc(Cl)cc3)cc2s1 [Compound I-1469] | 9 | – | –
30 | CCCc1cc2cc(/N=c3\[nH]c(=O)n([C@@H](C)[C@@H](C)C(=O)OC)c(=O)n3Cc3ccc(Cl)cc3)ccc2o1 [Compound I-1817] | – | 52 | –
31 | CCC[C@H](C)Oc1ccc(/N=c2\[nH]c(=O)n(C[C@H](C)C(=O)OC)c(=O)n2Cc2ccc(C)cc2)cc1 [Compound I-1046] | – | 28 | –
32 | CCn1c(=O)[nH]/c(=N\c2ccc(Oc3cc(C#N)ccn3)cc2)n(Cc2ccc(C)cc2)c1=O [Compound I-2300] | – | – | IC50 [3]: 3 nM
33 | C[C@@H](Cn1c(=O)[nH]/c(=N\c2ccc(OC(F)F)cc2)n(Cc2ccc(Cl)cc2)c1=O)C(=O)O [Compound I-1162] | – | 179 | –
34 | CCn1c(=O)[nH]/c(=N\c2ccc3nc(OCC(=O)O)sc3c2)n(Cc2ccc(Cl)cc2)c1=O [Compound I-2326] | – | – | IC50 [3]: 108 nM
35 | CSc1cccc(/N=c2\[nH]c(=O)n(C[C@H](C)C(=O)O)c(=O)n2Cc2ccc(Cl)cc2)c1 [Compound I-1152] | – | 110 | –
36 | O=c1[nH]/c(=N\c2ccc3nc(C4CC4)sc3c2)n(Cc2ccc(Cl)cc2)c(=O)n1CCOC1CCCCO1 (stereo not drawn) [Compound I-2024] | 5 | – | –
37 | Cc1cc(/N=c2\[nH]c(=O)n([C@@H](C)[C@@H](C)C(=O)O)c(=O)n2Cc2ccc(Cl)cc2)ccc1OC1CCC1 [Compound I-1409] | 17 | – | –
38 | CC(C)Oc1ccc(/N=c2\[nH]c(=O)n(CCCCC(=O)O)c(=O)n2Cc2ccc(Cl)cc2)cc1Cl [Compound I-2184] | 10 | – | –
39 | O=C(Cn1c(=O)[nH]/c(=N\c2ccc(Oc3cccc(F)n3)cc2)n(Cc2ccc(Cl)cc2)c1=O)NCCO [Compound I-2679] | – | – | IC50 [3]: 5 nM
40 | COC(=O)[C@H](C)[C@H](C)n1c(=O)[nH]/c(=N\c2ccc3oc(C)cc3c2)n(Cc2ccc(C)cc2)c1=O [Compound I-1325] | 28 | – | –
41 | O=C(O)Cn1c(=O)[nH]/c(=N\c2ccc(Oc3cccnn3)cc2)n(Cc2ccc(Cl)cc2)c1=O [Compound I-2663] | – | – | IC50 [3]: 330 nM
42 | Cc1ccc(Cn2c(=O)n(C[C@@H](C)C(=O)O)c(=O)[nH]/c2=N\c2ccc(OC(C)C)cc2)cc1 [Compound I-1105] | – | 152 | –

Row | Compound | IC50 [1] [nM] | IC50 [2] [nM] | also measured
43 | CCn1c(=O)[nH]/c(=N\c2ccc(Oc3ccnc(C(=O)NC)c3)cc2)n(Cc2ccc(Cl)cc2)c1=O [Compound I-1717] | – | 2 | –
44 | C[C@@H](Oc1ccc(/N=c2\[nH]c(=O)n(CC(CO)CO)c(=O)n2Cc2ccc(Cl)cc2)cc1)C(F)(F)F [Compound I-1882] | – | 16 | –
45 | Cc1ccc(Cn2c(=O)n(CCC(=O)O)c(=O)[nH]/c2=N\c2ccc(OC(C)C)c(C3CC3)c2)cc1 [Compound I-1303] | 66 | – | –
46 | CCCc1ccc(/N=c2\[nH]c(=O)n(CCC(=O)O)c(=O)n2Cc2ccc(C)cc2)cc1C [Compound I-1223] | 297 | – | –
47 | CCOC(=O)CCn1c(=O)[nH]/c(=N\c2ccc(CC(C)C)c(Cl)c2)n(Cc2ccc(C)cc2)c1=O [Compound I-1426] | 50 | – | –
48 | O=C(O)CCn1c(=O)[nH]/c(=N\c2ccc(Oc3ccnc(O)c3)cc2)n(Cc2ccc(Cl)cc2)c1=O [Compound I-1441] | 9 | – | –
49 | CC(C)Oc1cccc(Cn2c(=O)n(Cc3ccc(Cl)cc3)c(=O)n(C(C)C)c2=O)c1 [Compound I-1292] | 445 | – | –
50 | CCn1c(=O)[nH]/c(=N\c2cccc(Oc3nccs3)c2)n(Cc2ccc(Cl)cc2)c1=O [Compound I-2637] | – | – | IC50 [3]: 177 nM
51 | COC(=O)[C@@H](C)Cn1c(=O)[nH]/c(=N\c2ccc(CC(C)C)c(C)c2)n(Cc2ccc(Cl)cc2)c1=O [Compound I-0947] | – | 24 | –
52 | O=C(O)CCn1c(=O)[nH]/c(=N\c2cccc(S(F)(F)(F)(F)F)c2)n(Cc2ccc(Cl)cc2)c1=O [Compound I-1651] | – | 54 | –
53 | CCn1c(=O)[nH]/c(=N\c2ccc(Oc3cncc(C(=O)O)c3)cc2)n(Cc2ccc(F)cc2)c1=O [Compound I-2112] | 47 | – | –
54 | CCc1oc2ccc(/N=c3\[nH]c(=O)n(C[C@H](O)CO)c(=O)n3Cc3ccc(Cl)cc3)cc2c1C [Compound I-1624] | – | 8 | –
55 | CCn1c(=O)[nH]/c(=N\c2ccc(Oc3cc(OC)ncn3)cc2)n(Cc2ccc(Cl)cc2)c1=O [Compound I-1859] | – | 5 | –
56 | Cc1ccc(Cn2c(=O)n(CCC(=O)O)c(=O)[nH]/c2=N\c2ccc(Cl)cc2)cc1 [Compound I-2045] | 975 | – | –
57 | C=COc1ccc(/N=c2\[nH]c(=O)n(C[C@H](C)C(=O)O)c(=O)n2Cc2ccc(C)cc2)cc1Cl [Compound I-1549] | – | – | IC50 [3]: 8 nM
58 | CCc1nc2ccc(/N=c3\[nH]c(=O)n(CCCC(N)=O)c(=O)n3Cc3ccc(Cl)cc3)cc2s1 [Compound I-1711] | – | 5 | –
59 | Cc1cnc(Oc2ccc(/N=c3\[nH]c(=O)n(C[C@H](O)CO)c(=O)n3Cc3ccc(Cl)cc3)cc2)s1 [Compound I-2513] | – | – | IC50 [3]: 6 nM
60 | COC(=O)[C@@H](C)Cn1c(=O)[nH]/c(=N\c2ccc(CC#N)c(Cl)c2)n(Cc2ccc(Cl)cc2)c1=O [Compound I-0766] | 438 | – | –
61 | CCn1c(=O)[nH]/c(=N\c2ccc3nc(C)sc3c2)n(Cc2ccc(Cl)cc2)c1=O [Compound I-1702] | – | 4 | –
62 | CCn1c(=O)[nH]/c(=N\c2ccc(Oc3cncc(C(=O)O)c3)cc2)n(Cc2ccc(Cl)cn2)c1=O [Compound I-2164] | 125 | – | –
63 | Cc1ccc(Cn2c(=O)n(CC3(C(=O)O)COC3)c(=O)[nH]/c2=N\c2ccc(OC(C)C)c(Cl)c2)cc1 [Compound I-1495] | – | – | IC50 [3]: 26 nM
